Peptide text beside a SMILES is read from it.
Experiment: Presence of tolerogenic betalactoglobulin peptides in feed, retentate and permeate of membrane ultrafiltration (micro LC-MS ESI MS2)
Type: physicochemical
Conditions: Example 3: urea (8 M) added after hydrolysis and before ultrafiltration
Method: In a Multifors reactor (Infors HT) 500 gram of whey protein powder (WPC83, Arla Foods, with about 80% whey protein) was dissolved in water at a final concentration of about 4 wt % at a temperature of about 75° C., giving a protein concentration of about 3.2 wt %. After dissolving the mixture was cooled to 58° C. and the pH was adjusted to neutral (pH 7-8). Proteolytic enzymes were added (Trypsin, Neova Technologies Inc) to a concentration of 33 mg/100 g solution and hydrolysis took place for about 105 min under continuous stirring. During hydrolysis the pH was kept constant. After hydrolysis the mixture was quickly cooled to 4° C.
Next the mixture of whey protein hydrolysate and proteolytic enzymes was filtrated. 200 ml of the mixture (the feed) was filtrated for 20 minutes on a MMS Triple System membrane filtration unit (MMS AG Membrane Systems) provided with an ultrafiltration membrane from Koch (Koch: HFK-131, a flat sheet polyethersulfone ultrafiltration membrane with a molecular weight cut off of 10 kDa) under a pressure of 8 bars. A one-layer filtration setup was used and the retentate was circulated during filtration. Each membrane was used only once to promote reproducibility. The filtration cooling system was set to 15° C. The permeate was weighted, MMS filtration software was used for the registering of the permeate throughput. Samples were taken of the mixture before membrane filtration (the feed), and of the permeate and retentate after the membrane filtration step. About 93% of permeate (wt % of total feed) was produced comprising about 85 wt % of peptides (wt % of the peptides in the feed). Samples were stored at −50° C. for further analysis.
The presence of tolerogenic betalactoglobulin peptides in the samples was analyzed according to Gouw et al., 2018, Clin. Exp. Allergy 48:[…], with the modification that instead of nanoLC-ESI MS2, micro LC-MS ESI MS2 was used. The presence of 5 specific peptides was tested (region overlapping with the 13-48 AA acid region of betalactoglobulin in bold):
The process of example 1 was repeated. The only difference was that Citrem (Grinsted® Citrem, DuPont) was added at an amount of about 3.6 gram before the pH adjustment and the addition of the proteolytic enzymes. […]
The process of example 2a was repeated, the only difference being that instead of the emulsifier, 51 gram of urea (source Merck) was dissolved per 100 g water (8 M) and added after the hydrolysis step and before ultrafiltration. […] All peptides were detected in the retentate and feed, and peptides 1, 3, 4 and 5 of example 1 (i.e. SEQ ID NOs 66, 68, 69 and 70 with X=L) were detected in the permeate, in an amount of about 1-10 wt. % of the concentration of these peptides in the feed. […]

Presence of the tolerogenic peptides in the permeate, detected:
CC[C@H](C)[C@H](NC(=O)[C@H](CC(=O)O)NC(=O)[C@H](CC(C)C)NC(=O)CNC(=O)[C@H](CCCCN)NC(=O)[C@H](CCSC)NC(=O)[C@@H](NC(=O)[C@H](CCC(N)=O)NC(=O)[C@@H](NC(=O)[C@@H](NC(=O)[C@@H](NC(=O)[C@@H](N)CC(C)C)[C@@H](C)CC)C(C)C)[C@@H](C)O)[C@@H](C)O)C(=O)N[C@@H](CCC(N)=O)C(=O)N[C@@H](CCCCN)C(=O)N[C@H](C(=O)N[C@@H](C)C(=O)NCC(=O)N[C@H](C(=O)N[C@@H](Cc1c[nH]c2ccccc12)C(=O)N[C@@H](Cc1ccc(O)cc1)C(=O)N[C@@H](CO)C(=O)N[C@@H](CC(C)C)C(=O)N[C@@H](C)C(=O)N[C@@H](CCSC)C(=O)N[C@@H](C)C(=O)N[C@@H](C)C(=O)N[C@@H](CO)C(=O)O)[C@@H](C)O)C(C)C [Peptide 1] (H-LIVTQTMKGLDIQKVAGTWYSLAMAAS-OH; N-terminus and C-terminus assumed), CC[C@H](C)[C@H](NC(=O)[C@H](CC(=O)O)NC(=O)[C@H](CC(C)C)NC(=O)CNC(=O)[C@H](CCCCN)NC(=O)[C@H](CCSC)NC(=O)[C@@H](N)[C@@H](C)O)C(=O)N[C@@H](CCC(N)=O)C(=O)N[C@@H](CCCCN)C(=O)N[C@H](C(=O)N[C@@H](C)C(=O)NCC(=O)N[C@H](C(=O)N[C@@H](Cc1c[nH]c2ccccc12)C(=O)N[C@@H](Cc1ccc(O)cc1)C(=O)N[C@@H](CO)C(=O)N[C@@H](CC(C)C)C(=O)N[C@@H](C)C(=O)N[C@@H](CCSC)C(=O)N[C@@H](C)C(=O)N[C@@H](C)C(=O)N[C@@H](CO)C(=O)N[C@@H](CC(=O)O)C(=O)N[C@H](C(=O)N[C@@H](CO)C(=O)N[C@@H](CC(C)C)C(=O)N[C@@H](CC(C)C)C(=O)N[C@@H](CC(=O)O)C(=O)N[C@@H](C)C(=O)N[C@@H](CCC(N)=O)C(=O)O)[C@@H](C)CC)[C@@H](C)O)C(C)C [Peptide 3] (H-TMKGLDIQKVAGTWYSLAMAASDISLLDAQ-OH; N-terminus and C-terminus assumed), CC[C@H](C)[C@H](NC(=O)[C@H](CC(=O)O)NC(=O)[C@H](CC(C)C)NC(=O)CNC(=O)[C@H](CCCCN)NC(=O)[C@H](CCSC)NC(=O)[C@@H](N)[C@@H](C)O)C(=O)N[C@@H](CCC(N)=O)C(=O)N[C@@H](CCCCN)C(=O)N[C@H](C(=O)N[C@@H](C)C(=O)NCC(=O)N[C@H](C(=O)N[C@@H](Cc1c[nH]c2ccccc12)C(=O)N[C@@H](Cc1ccc(O)cc1)C(=O)N[C@@H](CO)C(=O)N[C@@H](CC(C)C)C(=O)N[C@@H](C)C(=O)N[C@@H](CCSC)C(=O)N[C@@H](C)C(=O)N[C@@H](C)C(=O)N[C@@H](CO)C(=O)N[C@@H](CC(=O)O)C(=O)N[C@H](C(=O)N[C@@H](CO)C(=O)N[C@@H](CC(C)C)C(=O)N[C@@H](CC(C)C)C(=O)O)[C@@H](C)CC)[C@@H](C)O)C(C)C [Peptide 4] (H-TMKGLDIQKVAGTWYSLAMAASDISLL-OH; N-terminus and C-terminus assumed), CC[C@H](C)[C@H](NC(=O)[C@H](CC(=O)O)NC(=O)[C@H](CC(C)C)NC(=O)CNC(=O)[C@H](CCCCN)NC(=O)[C@H](CCSC)NC(=O)[C@@H](NC(=O)[C@H](CCC(N)=O)NC(=O)[C@@H](NC(=O)[C@@H](NC(=O)[C@@H](NC(=O)[C@@H](N)CC(C)C)[C@@H](C)CC)C(C)C)[C@@H](C)O)[C@@H](C)O)C(=O)N[C@@H](CCC(N)=O)C(=O)N[C@@H](CCCCN)C(=O)N[C@H](C(=O)N[C@@H](C)C(=O)NCC(=O)N[C@H](C(=O)N[C@@H](Cc1c[nH]c2ccccc12)C(=O)N[C@@H](Cc1ccc(O)cc1)C(=O)N[C@@H](CO)C(=O)N[C@@H](CC(C)C)C(=O)N[C@@H](C)C(=O)N[C@@H](CCSC)C(=O)N[C@@H](C)C(=O)N[C@@H](C)C(=O)N[C@@H](CO)C(=O)N[C@@H](CC(=O)O)C(=O)N[C@H](C(=O)N[C@@H](CO)C(=O)N[C@@H](CC(C)C)C(=O)N[C@@H](CC(C)C)C(=O)O)[C@@H](C)CC)[C@@H](C)O)C(C)C [Peptide 5] (H-LIVTQTMKGLDIQKVAGTWYSLAMAASDISLL-OH; N-terminus and C-terminus assumed)
